The text below walks through data of patent US20260146035A1, “FUSED BICYCLIC COMPOUNDS AND THEIR USE AS MER AND AXL INHIBITORS” (DONG-A ST CO., LTD., priority 2022, published 2026).

One assay deals with T1, human MER (528-end) (Homo sapiens, UniProt Q12866).
T1 construct: human MER (528-end); purchased Camnabio, Japan
T1 sequence (Q12866 528-999 limits assumed): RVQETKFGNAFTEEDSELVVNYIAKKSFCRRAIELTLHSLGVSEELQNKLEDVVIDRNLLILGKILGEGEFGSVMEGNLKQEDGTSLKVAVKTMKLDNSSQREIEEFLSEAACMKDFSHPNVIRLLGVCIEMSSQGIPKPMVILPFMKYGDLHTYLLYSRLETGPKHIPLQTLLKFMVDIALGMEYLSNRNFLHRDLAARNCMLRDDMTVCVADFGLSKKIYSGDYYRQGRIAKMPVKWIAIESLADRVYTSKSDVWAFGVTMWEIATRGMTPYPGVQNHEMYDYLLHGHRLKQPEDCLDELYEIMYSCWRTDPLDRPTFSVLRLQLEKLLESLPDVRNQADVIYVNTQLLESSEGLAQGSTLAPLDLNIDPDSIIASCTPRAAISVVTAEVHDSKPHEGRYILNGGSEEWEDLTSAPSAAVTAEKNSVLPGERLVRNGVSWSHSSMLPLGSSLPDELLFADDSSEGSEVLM
The experiment in a line: HTRF kinase activity biochemical assay, MER. The note with it: 10 μM ATP, 30 minutes pre-incubation; read-out: HTRF MERTK IC50. As to the method:
(§1) For the SAR (structure-activity relationship) and compound screening, HTRF (Homogeneous Time Resolved Fluorescence) kinase activity assay was employed for all MER, AXL and TYRO3 kinases using Cisbio HTRF® KinEASE™-TK kit (Cisbio, USA). The kit included biotin-labeled TK substrate, streptavidin-XL665, Eu3+-cryptate-labeled TK antibody and HTRF® Detection buffer. There are two main steps in the kinase assay: kinase reaction and detection of phosphorylated substrate. The reaction was carried out in white low volume 384-well plate (Corning, USA) with 25 nL compound in dimethyl sulfoxide in each well. […] After 1 hour incubation at room temperature, the fluorescence intensity was measured with Envision[…] plate reader (PerkinElmer, USA). Upon excitation at 340 nm by UV, the energy from Eu3+ donor of the antibody is transferred to the FRET acceptor XL665, and […] emits light at 665 nm.
On the technique in general: Time-resolved FRET reads energy transfer from a long-lived donor to a nearby acceptor.

The next assay concerns the target T2, human AXL (473-end) (Homo sapiens, UniProt P30530).
T2 construct: human AXL (473-end); purchased SignalChem, Canada
T2 sequence (P30530 473-894 limits assumed): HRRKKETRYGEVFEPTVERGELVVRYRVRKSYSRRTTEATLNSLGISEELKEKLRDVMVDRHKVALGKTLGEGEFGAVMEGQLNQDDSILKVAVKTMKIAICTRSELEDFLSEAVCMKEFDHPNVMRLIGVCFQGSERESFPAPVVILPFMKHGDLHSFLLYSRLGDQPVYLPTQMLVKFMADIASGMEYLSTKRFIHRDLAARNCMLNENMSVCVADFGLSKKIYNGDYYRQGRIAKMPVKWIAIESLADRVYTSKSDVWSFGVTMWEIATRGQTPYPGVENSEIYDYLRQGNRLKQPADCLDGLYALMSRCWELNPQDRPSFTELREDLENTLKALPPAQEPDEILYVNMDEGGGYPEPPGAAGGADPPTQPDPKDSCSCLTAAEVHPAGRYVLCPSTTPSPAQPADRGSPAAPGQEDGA
The experiment in a line: HTRF kinase activity biochemical assay, AXL. Particulars: 10 μM ATP, 30 minutes pre-incubation. As to the method:
as §1

The next assay concerns the target T3, human TYRO3 (455-end) (Homo sapiens, UniProt Q06418).
T3 construct: TYRO3 (455-end); purchased SignalChem, Canada
T3 sequence (Q06418 455-890 limits assumed): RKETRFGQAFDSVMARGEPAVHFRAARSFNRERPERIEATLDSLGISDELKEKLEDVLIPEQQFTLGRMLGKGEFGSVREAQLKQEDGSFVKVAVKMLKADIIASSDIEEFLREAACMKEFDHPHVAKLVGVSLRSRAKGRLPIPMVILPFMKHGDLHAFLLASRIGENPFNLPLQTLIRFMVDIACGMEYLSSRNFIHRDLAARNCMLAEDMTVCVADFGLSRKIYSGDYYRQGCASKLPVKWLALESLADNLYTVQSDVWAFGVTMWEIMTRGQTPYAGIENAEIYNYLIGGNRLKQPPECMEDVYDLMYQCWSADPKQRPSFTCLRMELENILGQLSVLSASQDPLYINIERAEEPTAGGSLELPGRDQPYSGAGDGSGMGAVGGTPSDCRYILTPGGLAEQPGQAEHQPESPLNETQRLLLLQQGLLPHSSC
The experiment in a line: HTRF kinase activity biochemical assay, TYRO3. The note with it: 10 μM ATP, 30 minutes pre-incubation; read-out: HTRF TYRO IC50. On the procedure:
as §1

With `Cn1cc(-c2cnc(N)c(C(=O)N[C@H]3CCC[C@@H]3OCc3ccc(-c4ccc5c(c4)C[C@H](F)[C@@H]5N4CCN(CCO)CC4)cc3)c2)ccc1=O` (relative stereo) [Example 90, 6-amino-N-{(1S,2S)-2-[(4-{(1R*,2S*)-2-fluoro-1-[4-(2-hydroxyethyl)piperazin-1-yl]-2,3-dihydro-1H-inden-5-yl}phenyl)methoxy]cyclopentyl}-1′-methyl-6′-oxo-1′,6′-dihydro[3,3′-bipyridine]-5-carboxamide], the concentration for half-maximal inhibition (IC50) (commonly the midpoint of a concentration-inhibition curve) is below 10 nM at human MER (528-end), below 10 nM on human AXL (473-end) and above 1000 nM on human TYRO3 (455-end).

For `CN(C)CCC(=O)N1Cc2ccc(-c3ccc(CO[C@H]4CCC[C@@H]4NC(=O)c4cc(-c5cnn(C)c5)cnc4N)cc3)cc2C1` [Example 1, 2-amino-N-{(1S,2S)-2-[(4-{2-[3-(dimethylamino)propanoyl]-2,3-dihydro-1H-isoindol-5-yl}phenyl)methoxy]cyclopentyl}-5-(1-methyl-1H-pyrazol-4-yl)pyridine-3-carboxamide], the IC50 on human MER (528-end) was 100 to 1000 nM; against human AXL (473-end), above 1000 nM; on human TYRO3 (455-end), above 1000 nM.

For the molecule `CN(C)CC(=O)N1CCc2cc(-c3ccc(CO[C@H]4CCC[C@@H]4NC(=O)c4cc(-c5cnn(C)c5)cnc4N)cc3)ccc21` [Example 2, 2-amino-N-{(1S,2S)-2-[(4-{1-[(dimethylamino)acetyl]-2,3-dihydro-1H-indol-5-yl}phenyl)methoxy]cyclopentyl}-5-(1-methyl-1H-pyrazol-4-yl)pyridine-3-carboxamide], the IC50 is 100 to 1000 nM at human MER (528-end), 100 to 1000 nM against human AXL (473-end) and above 1000 nM on human TYRO3 (455-end).

Regarding `CN1C(=O)Cc2cc(-c3ccc(CO[C@H]4CCC[C@@H]4NC(=O)c4cc(-c5cnn(C)c5)cnc4N)cc3)ccc21` [Example 3, 2-amino-N-[(1S,2S)-2-{[4-(1-methyl-2-oxo-2,3-dihydro-1H-indol-5-yl)phenyl]methoxy}cyclopentyl]-5-(1-methyl-1H-pyrazol-4-yl)pyridine-3-carboxamide], the values for the IC50 at human MER (528-end), against human AXL (473-end) and at human TYRO3 (455-end) were 10 to 100 nM, 100 to 1000 nM and above 1000 nM, respectively.

Turning to `Cn1cc(-c2cnc(N)c(C(=O)N[C@H]3CCC[C@@H]3OCc3ccc(-c4ccc5c(ccn5C5CCN(C(=O)OC(C)(C)C)CC5)c4)cc3)c2)cn1` [Example 4, tert-butyl 4-{5-[4-({[(1S,2S)-2-{[2-amino-5-(1-methyl-1H-pyrazol-4-yl)pyridine-3-carbonyl]amino}cyclopentyl]oxy}methyl)phenyl]-1H-indol-1-yl}piperidine-1-carboxylate], the IC50 on human MER (528-end) was above 1000 nM; at human AXL (473-end) it was 100 to 1000 nM; at human TYRO3 (455-end), above 1000 nM.

As to `Cn1cc(-c2cnc(N)c(C(=O)N[C@H]3CCC[C@@H]3OCc3ccc(-c4ccc5c(ccn5C5CCNCC5)c4)cc3)c2)cn1` [Example 5, 2-amino-5-(1-methyl-1H-pyrazol-4-yl)-N-[(1S,2S)-2-({4-[1-(piperidin-4-yl)-1H-indol-5-yl]phenyl}methoxy)cyclopentyl]pyridine-3-carboxamide], the IC50 on human MER (528-end) was below 10 nM; against human AXL (473-end) it was below 10 nM; at human TYRO3 (455-end), 100 to 1000 nM.

For the molecule `CN1CCC(n2ccc3cc(-c4ccc(CO[C@H]5CCC[C@@H]5NC(=O)c5cc(-c6cnn(C)c6)cnc5N)cc4)ccc32)CC1` [Example 6, 2-amino-N-[(1S,2S)-2-({4-[1-(1-methylpiperidin-4-yl)-1H-indol-5-yl]phenyl}methoxy)cyclopentyl]-5-(1-methyl-1H-pyrazol-4-yl)pyridine-3-carboxamide], the IC50 on human MER (528-end) was below 10 nM; on human AXL (473-end), below 10 nM; at human TYRO3 (455-end) it was 100 to 1000 nM.

Regarding `Cn1cc(-c2cnc(N)c(C(=O)N[C@H]3CCC[C@@H]3OCc3ccc(-c4ccc5c(ccn5C5CCN(CCO)CC5)c4)cc3)c2)cn1` [Example 7, 2-amino-N-{(1S,2S)-2-[(4-{1-[1-(2-hydroxyethyl)piperidin-4-yl]-1H-indol-5-yl}phenyl)methoxy]cyclopentyl}-5-(1-methyl-1H-pyrazol-4-yl)pyridine-3-carboxamide], the IC50 on human MER (528-end) is below 10 nM; against human AXL (473-end), below 10 nM; at human TYRO3 (455-end) it was 100 to 1000 nM.

Regarding `CN(C)CC(=O)NC1Cc2ccc(-c3ccc(CO[C@H]4CCC[C@@H]4NC(=O)c4cc(-c5cnn(C)c5)cnc4N)cc3)cc2C1` (stereo partly drawn) [Example 9, 2-amino-N-{(1S,2S)-2-[(4-{2-[2-(dimethylamino)acetamido]-2,3-dihydro-1H-inden-5-yl}phenyl)methoxy]cyclopentyl}-5-(1-methyl-1H-pyrazol-4-yl)pyridine-3-carboxamide], the IC50 was below 10 nM on human MER (528-end), 10 to 100 nM against human AXL (473-end) and above 1000 nM on human TYRO3 (455-end).

On to `CN1CCC(C(=O)NC2Cc3ccc(-c4ccc(CO[C@H]5CCC[C@@H]5NC(=O)c5cc(-c6cnn(C)c6)cnc5N)cc4)cc3C2)CC1` (stereo partly drawn) [Example 10, 2-amino-N-{(1S,2S)-2-[(4-{2-[(1-methylpiperidine-4-carbonyl)amino]-2,3-dihydro-1H-inden-5-yl}phenyl)methoxy]cyclopentyl}-5-(1-methyl-1H-pyrazol-4-yl)pyridine-3-carboxamide], for which the IC50 is below 10 nM on human MER (528-end), 10 to 100 nM against human AXL (473-end) and above 1000 nM on human TYRO3 (455-end).

As to `CN1CC(C(=O)NC2Cc3ccc(-c4ccc(CO[C@H]5CCC[C@@H]5NC(=O)c5cc(-c6cnn(C)c6)cnc5N)cc4)cc3C2)C1` (stereo partly drawn) [Example 11, 2-amino-N-{(1S,2S)-2-[(4-{2-[(1-methylazetidine-3-carbonyl)amino]-2,3-dihydro-1H-inden-5-yl}phenyl)methoxy]cyclopentyl}-5-(1-methyl-1H-pyrazol-4-yl)pyridine-3-carboxamide], the IC50 on human MER (528-end) was below 10 nM; on human AXL (473-end), 10 to 100 nM; on human TYRO3 (455-end), above 1000 nM.

On to `CN1CCC(N2CC(C)(C)c3cc(-c4ccc(CO[C@H]5CCC[C@@H]5NC(=O)c5cc(-c6cnn(C)c6)cnc5N)cc4)ccc32)CC1` [Example 12, 2-amino-N-[(1S,2S)-2-({4-[3,3-dimethyl-1-(1-methylpiperidin-4-yl)-2,3-dihydro-1H-indol-5-yl]phenyl}methoxy)cyclopentyl]-5-(1-methyl-1H-pyrazol-4-yl)pyridine-3-carboxamide], for which the values for the half-maximal inhibitory concentration (IC50) at human MER (528-end), against human AXL (473-end) and on human TYRO3 (455-end) were below 10 nM, below 10 nM and 10 to 100 nM, respectively.

`Cn1cc(-c2cnc(N)c(C(=O)N[C@H]3CCC[C@@H]3OCc3ccc(-c4ccc5c(c4)C(C)(C)CN5C4CCN(CCO)CC4)cc3)c2)cn1` [Example 13, 2-amino-N-{(1S,2S)-2-[(4-{1-[1-(2-hydroxyethyl)piperidin-4-yl]-3,3-dimethyl-2,3-dihydro-1H-indol-5-yl}phenyl)methoxy]cyclopentyl}-5-(1-methyl-1H-pyrazol-4-yl)pyridine-3-carboxamide]: the values for the IC50 at human MER (528-end), against human AXL (473-end) and on human TYRO3 (455-end) were below 10 nM, below 10 nM and 10 to 100 nM, respectively.

Take `Cn1cc(-c2cnc(N)c(C(=O)N[C@H]3COC[C@@H]3OCc3ccc(-c4ccc5c(ccn5C5CCN(CCO)CC5)c4)cc3)c2)cn1` [Example 14, 2-amino-N-{(3S,4R)-4-[(4-{1-[1-(2-hydroxyethyl)piperidin-4-yl]-1H-indol-5-yl}phenyl)methoxy]oxolan-3-yl}-5-(1-methyl-1H-pyrazol-4-yl)pyridine-3-carboxamide]: the IC50 on human MER (528-end) is below 10 nM; against human AXL (473-end), 10 to 100 nM; at human TYRO3 (455-end) it was above 1000 nM.
